Source: ChEMBL document CHEMBL1909046, “DrugMatrix in vitro pharmacology data”

Tests used:
[1] = biological target: T1, B2 bradykinin receptor (Homo sapiens, UniProt P30411); format: cell membranes, Membrane; conditions: chem-1; also: in other assays of this panel Not Active means under 50% inhibition at 10 µM
T1 sequence (P30411 whole entry): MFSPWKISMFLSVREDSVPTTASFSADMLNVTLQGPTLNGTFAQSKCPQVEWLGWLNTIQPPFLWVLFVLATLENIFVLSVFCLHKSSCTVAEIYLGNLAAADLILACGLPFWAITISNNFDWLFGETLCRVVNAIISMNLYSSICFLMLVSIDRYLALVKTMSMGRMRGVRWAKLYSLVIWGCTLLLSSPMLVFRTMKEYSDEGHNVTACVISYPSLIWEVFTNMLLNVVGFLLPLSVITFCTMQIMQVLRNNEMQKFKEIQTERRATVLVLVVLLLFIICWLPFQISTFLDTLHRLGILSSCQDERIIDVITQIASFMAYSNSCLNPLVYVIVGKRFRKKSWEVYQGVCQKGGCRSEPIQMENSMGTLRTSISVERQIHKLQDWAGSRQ

[2] = DRUGMATRIX: Tumor Necrosis Factor (TNF), Non-Selective radioligand binding (ligand: [125I] TNF-alpha); format: cell membranes, Membrane; conditions: u-937; Not Active = under 50% inhibition at 10 µM
[3] = biological target: Prostaglandin G/H synthase 1 (Homo sapiens, UniProt P23219); test: biochemical; format: tissue-based, Platelet;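 also: inhibition of COX-1 enzyme activity, with arachidonic acid supplied as substrate; in other assays of this panel Not Active means under 50% inhibition at 10 µM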
[4] = biological target: T2, Polyunsaturated fatty acid lipoxygenase ALOX15 (Oryctolagus cuniculus, UniProt P12530); test: biochemical; format: tissue-based, Reticulocytes; conditions: reticulocytes;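 also: inhibition of 15-lipoxygenase enzyme activity measured with linoleic acid as the substrate; in other assays of this panel Not Active means under 50% inhibition at 10 µM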
T2 sequence (P12530 whole entry): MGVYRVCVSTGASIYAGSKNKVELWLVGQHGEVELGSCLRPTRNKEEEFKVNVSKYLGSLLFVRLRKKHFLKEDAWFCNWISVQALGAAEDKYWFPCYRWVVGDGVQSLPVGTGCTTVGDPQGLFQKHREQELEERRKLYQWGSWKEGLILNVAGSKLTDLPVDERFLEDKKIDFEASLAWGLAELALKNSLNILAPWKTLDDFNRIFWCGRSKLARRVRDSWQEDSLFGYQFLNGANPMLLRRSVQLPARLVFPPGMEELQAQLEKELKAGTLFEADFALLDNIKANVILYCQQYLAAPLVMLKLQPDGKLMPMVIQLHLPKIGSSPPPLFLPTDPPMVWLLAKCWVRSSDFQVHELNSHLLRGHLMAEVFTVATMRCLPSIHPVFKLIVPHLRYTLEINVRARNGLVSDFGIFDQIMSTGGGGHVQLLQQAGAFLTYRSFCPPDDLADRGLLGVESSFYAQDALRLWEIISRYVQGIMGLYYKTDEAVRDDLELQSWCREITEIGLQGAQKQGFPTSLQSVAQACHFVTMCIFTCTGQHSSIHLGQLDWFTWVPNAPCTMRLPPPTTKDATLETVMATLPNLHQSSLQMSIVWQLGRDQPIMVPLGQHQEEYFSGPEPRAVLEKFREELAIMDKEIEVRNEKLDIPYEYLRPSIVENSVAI

[5] = biological target: T3, Nitric oxide synthase, inducible (Mus musculus, UniProt P29477); design: species or system Escherichia coli;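 also: inhibition of iNOS enzyme activity measured with L-arginine as substrate; in other assays of this panel Not Active means under 50% inhibition at 10 µM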
T3 sequence (P29477 whole entry): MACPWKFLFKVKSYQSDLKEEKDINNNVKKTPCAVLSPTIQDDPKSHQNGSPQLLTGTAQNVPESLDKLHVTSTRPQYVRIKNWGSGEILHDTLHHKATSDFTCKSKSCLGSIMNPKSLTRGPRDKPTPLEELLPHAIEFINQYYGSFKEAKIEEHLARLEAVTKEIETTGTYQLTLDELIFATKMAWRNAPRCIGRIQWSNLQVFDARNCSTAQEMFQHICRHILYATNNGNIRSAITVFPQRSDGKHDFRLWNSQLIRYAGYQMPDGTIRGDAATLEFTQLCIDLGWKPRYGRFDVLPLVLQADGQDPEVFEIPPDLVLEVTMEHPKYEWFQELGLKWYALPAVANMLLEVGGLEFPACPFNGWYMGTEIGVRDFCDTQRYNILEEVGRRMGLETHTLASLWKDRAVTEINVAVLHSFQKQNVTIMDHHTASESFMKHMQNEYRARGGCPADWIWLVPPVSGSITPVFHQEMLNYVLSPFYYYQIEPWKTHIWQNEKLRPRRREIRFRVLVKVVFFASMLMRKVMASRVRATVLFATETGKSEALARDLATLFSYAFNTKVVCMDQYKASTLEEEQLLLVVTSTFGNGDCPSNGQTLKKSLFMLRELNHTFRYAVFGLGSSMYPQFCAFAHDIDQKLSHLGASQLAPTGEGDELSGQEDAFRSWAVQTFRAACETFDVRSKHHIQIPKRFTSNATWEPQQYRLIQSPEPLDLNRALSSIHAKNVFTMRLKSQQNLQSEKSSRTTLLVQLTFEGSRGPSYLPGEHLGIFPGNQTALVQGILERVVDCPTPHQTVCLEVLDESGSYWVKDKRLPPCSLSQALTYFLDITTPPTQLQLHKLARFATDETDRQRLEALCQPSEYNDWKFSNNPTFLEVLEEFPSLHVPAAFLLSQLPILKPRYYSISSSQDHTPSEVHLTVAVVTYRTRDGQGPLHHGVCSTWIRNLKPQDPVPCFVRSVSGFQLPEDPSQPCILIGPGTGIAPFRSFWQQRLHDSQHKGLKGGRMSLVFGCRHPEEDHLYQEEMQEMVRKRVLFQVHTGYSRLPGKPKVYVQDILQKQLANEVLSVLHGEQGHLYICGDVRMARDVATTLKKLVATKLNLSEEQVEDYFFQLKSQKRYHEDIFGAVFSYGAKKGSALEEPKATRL

[6] = DRUGMATRIX: Purinergic P2X radioligand binding (ligand: [3H] alpha, beta-Methylene-ATP); format: cell membranes, Oryctolagus cuniculus, New Zealand albino, Urinary bladder, Membrane; conditions: Not Active = under 50% inhibition at 10 µM
[7] = biological target: T4, Cytochrome P450 1A2 (Homo sapiens, UniProt P05177); conditions: bti-tn-5b1-4; also: in other assays of this panel Not Active means under 50% inhibition at 10 µM
T4 sequence (P05177 whole entry): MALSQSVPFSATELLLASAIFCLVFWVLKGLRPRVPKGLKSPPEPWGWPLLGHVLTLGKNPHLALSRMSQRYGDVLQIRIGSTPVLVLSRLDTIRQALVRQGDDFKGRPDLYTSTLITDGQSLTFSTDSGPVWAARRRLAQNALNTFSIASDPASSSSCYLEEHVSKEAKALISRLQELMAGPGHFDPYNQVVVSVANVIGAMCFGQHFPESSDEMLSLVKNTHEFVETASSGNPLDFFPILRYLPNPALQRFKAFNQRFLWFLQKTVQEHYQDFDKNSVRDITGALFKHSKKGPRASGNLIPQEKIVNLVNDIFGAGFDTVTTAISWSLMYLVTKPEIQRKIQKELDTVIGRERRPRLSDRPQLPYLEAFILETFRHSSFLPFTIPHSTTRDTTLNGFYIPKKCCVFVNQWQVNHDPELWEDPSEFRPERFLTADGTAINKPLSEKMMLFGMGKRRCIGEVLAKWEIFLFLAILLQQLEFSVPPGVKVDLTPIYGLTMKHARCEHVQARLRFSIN

Sequence of Prostaglandin G/H synthase 1 (P23219 whole entry): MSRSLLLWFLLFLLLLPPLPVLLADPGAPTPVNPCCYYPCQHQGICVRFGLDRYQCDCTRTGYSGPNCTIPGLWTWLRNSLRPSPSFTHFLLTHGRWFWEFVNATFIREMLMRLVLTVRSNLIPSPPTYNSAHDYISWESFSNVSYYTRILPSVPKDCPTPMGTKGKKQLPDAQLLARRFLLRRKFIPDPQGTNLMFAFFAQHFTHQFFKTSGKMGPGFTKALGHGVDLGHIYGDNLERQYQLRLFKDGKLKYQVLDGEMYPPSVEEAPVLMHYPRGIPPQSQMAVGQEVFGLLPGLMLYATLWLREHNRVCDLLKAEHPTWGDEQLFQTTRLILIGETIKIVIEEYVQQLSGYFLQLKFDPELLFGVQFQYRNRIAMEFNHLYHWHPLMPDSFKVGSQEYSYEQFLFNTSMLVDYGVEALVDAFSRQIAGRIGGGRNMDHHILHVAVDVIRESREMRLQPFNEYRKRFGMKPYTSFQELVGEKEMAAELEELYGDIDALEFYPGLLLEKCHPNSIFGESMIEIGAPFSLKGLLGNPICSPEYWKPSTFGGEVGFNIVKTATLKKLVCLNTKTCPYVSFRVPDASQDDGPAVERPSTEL

| SMILES | IC50 [1] | IC50 [2] | Ki [2] | IC50 ([3]; platelet) | IC50 [4] | IC50 [5] | IC50 [6] | Ki [6] | IC50 [7] | Ki [7] | IC50 ([3]; read-out: IC50) [nM] |
| --- | --- | --- | --- | --- | --- | --- | --- | --- | --- | --- | --- |
| CC(C)(CO)C(O)C(=O)NCCCO (stereo not given) [PANTHENOL] | Not Active | Not Active | Not Active | Not Active | Not Active | Not Active | Not Active | Not Active | Not Active | Not Active |  |
| NC(=O)N1c2ccccc2C=Cc2ccccc21 [CARBAMAZEPINE] | Not Active | Not Active | Not Active | Not Active | Not Active | Not Active | Not Active | Not Active | Not Active | Not Active |  |
| CN(Cc1cnc2nc(N)nc(N)c2n1)c1ccc(C(=O)N[C@@H](CCC(=O)O)C(=O)O)cc1 [METHOTREXATE] | Not Active | Not Active | Not Active | Not Active | Not Active | Not Active | Not Active | Not Active | Not Active | Not Active |  |
| O=P1(N(CCCl)CCCl)NCCCO1 (stereo not given) [CYCLOPHOSPHAMIDE ANHYDROUS] | Not Active | Not Active | Not Active | Not Active | Not Active | Not Active | Not Active | Not Active | Not Active | Not Active |  |
| C[C@]12CCC(=O)C=C1CC[C@@H]1[C@@H]2[C@@H](O)C[C@@]2(C)[C@H]1CC[C@]2(O)C(=O)CO [HYDROCORTISONE] | Not Active | Not Active | Not Active | Not Active | Not Active | Not Active | Not Active | Not Active | Not Active | Not Active |  |
| Cc1cccc(Nc2ccccc2C(=O)O)c1C [MEFENAMIC ACID] | Not Active | Not Active | Not Active |  | Not Active | Not Active | Not Active | Not Active | Not Active | Not Active | 116 |
| CCn1cc(C(=O)O)c(=O)c2cc(F)c(N3CCNCC3)nc21 [ENOXACIN] | Not Active | Not Active | Not Active | Not Active | Not Active | Not Active | Not Active | Not Active | Not Active | Not Active |  |
| Cc1c(N(C)CS(=O)(=O)[O-])c(=O)n(-c2ccccc2)n1C.[Na+] [DIPYRONE SODIUM] | Not Active | Not Active | Not Active | Not Active | Not Active | Not Active | Not Active | Not Active | Not Active | Not Active |  |
| C#C[C@]1(O)CC[C@H]2[C@@H]3CCC4=Cc5oncc5C[C@]4(C)[C@H]3CC[C@@]21C [DANAZOL] | Not Active | Not Active | Not Active | Not Active | Not Active | Not Active | Not Active | Not Active | Not Active | Not Active |  |
| CC(=O)O[C@]1(C(C)=O)CC[C@H]2[C@@H]3C=C(C)C4=CC(=O)CC[C@]4(C)[C@H]3CC[C@@]21C [MEGESTROL ACETATE] | Not Active | Not Active | Not Active | Not Active | Not Active | Not Active | Not Active | Not Active | Not Active | Not Active |  |
| CCOC(=O)n1ccn(C)c1=S [CARBIMAZOLE] | Not Active | Not Active | Not Active | Not Active | Not Active | Not Active | Not Active | Not Active | Not Active | Not Active |  |
| NC[C@@H]1O[C@H](O[C@H]2[C@@H](O)[C@H](O[C@@H]3[C@@H](O)[C@H](N)C[C@H](N)[C@H]3O[C@H]3O[C@H](CN)[C@@H](O)[C@H](O)[C@H]3N)O[C@@H]2CO)[C@H](N)[C@@H](O)[C@@H]1O [FRAMYCETIN] | Not Active | Not Active | Not Active | Not Active | Not Active | Not Active | Not Active | Not Active | Not Active | Not Active |  |
| C[C@]12C/C(=C/O)C(=O)C[C@@H]1CC[C@@H]1[C@@H]2CC[C@@]2(C)[C@H]1CC[C@]2(C)O [OXYMETHOLONE] | Not Active | Not Active | Not Active | Not Active | Not Active | Not Active | Not Active | Not Active | Not Active | Not Active |  |
| CCOC(=O)[C@H](CCc1ccccc1)N[C@@H](C)C(=O)N1Cc2ccccc2C[C@H]1C(=O)O | Not Active | Not Active | Not Active | Not Active | Not Active | Not Active | Not Active | Not Active | Not Active | Not Active |  |
| C=C1/C(=C\C=C2/CCC[C@]3(C)[C@@H]([C@H](C)CCCC(C)C)CC[C@@H]23)C[C@@H](O)C[C@@H]1O [ALFACALCIDOL] | Not Active | Not Active | Not Active | Not Active | Not Active | Not Active | Not Active | Not Active | Not Active | Not Active |  |
